Here are results for 31 compounds from US11732000B2, “Oxysterols and methods of use thereof” (Sage Therapeutics, Inc., priority 2015, dated 2023).

The target in the assay is T1, GlunN1/GluN2A glutamate receptors (Homo sapiens, UniProt Q05586+Q12879).
T1 construct: expressed in transfected cells
The assay is described as follows: NMDA potentiation, whole-cell patch clamp of mammalian cells (IonWorks Barracuda, IWB). Format: cell-based. As to conditions: 3 μM test article, HEK293 cells expressing human GRIN1/GRIN2A, co-application with EC20 L-glutamate and 30 μM glycine; for activation at 3 µM: read-out: GluN2A PCA IWB Ephys % potentiation at 3 μM. The protocol: NMDA potentiation was assessed using either whole cell patch clamp of mammalian cells which expressed NMDA receptors.
Whole-Cell Patch Clamp of Mammalian Cells (IONWORKS BARRACUDA® (IWB))
The whole-cell patch-clamp technique was used to investigate the effects of compounds GlunN1/GluN2A glutamate receptors expressed in mammalian cells.
HEK293 cells were transformed with adenovirus 5 DNA and transfected with cDNA encoding the human GRIN1/GRIN2A genes. Stable transfectants were selected using G418 and ZEOCIN™ (phleomycins)-resistance genes incorporated into the expression plasmid and selection pressure maintained with G418 and ZEOCIN™ (phleomycins) in the medium. Cells were cultured in Dulbecco's Modified Eagle Medium/Nutrient Mixture (D-MEM/F-12) supplemented with 10% fetal bovine serum, 100 μg/ml penicillin G sodium, 100 μg/ml streptomycin sulphate, 100 μg/ml Zeocin, 5 μg/ml blasticidin and 500 μg/ml G418.
Test article effects were evaluated in 8-point concentration-response format (4 replicate wells/concentration). All test and control solutions contained 0.3% DMSO and 0.01% KOLLIPHOR® (polyethoxylated castor oil) EL (C5135, Sigma). The test article formulations were loaded in a 384-well compound plate using an automated liquid handling system (SCICLONE® ALH3000, Caliper Life Sciences). The measurements were performed using IWB platform following this procedure:
Electrophysiological Procedures:
• a) Intracellular solution (mM): 50 mM CsCl, 90 mM CsF, 2 mM MgCl2, 5 mM EGTA, 10 mM HEPES. Adjust to pH 7.2 with CsOH. • b) Extracellular solution, HB-PS (composition in mM): NaCl, 137; KCl, 1.0; CaCl2), 5; HEPES, 10; Glucose, 10; pH adjusted to 7.4 with NaOH (refrigerated until use). • c) Holding potential: −70 mV, potential during agonist/PAM application: −40 mV. Recording Procedure: • a) Extracellular buffer will be loaded into the PPC plate wells (11 μL per well). Cell suspension will be pipetted into the wells (9 μL per well) of the PPC planar electrode. • b) Whole-cell recording configuration will be established via patch perforation with membrane currents recorded by on-board patch clamp amplifiers. • c) Two recordings (scans) will be performed. First, during pre-application of test article alone (duration of pre-application −5 min) and second, during test articles and agonist (EC20 L-glutamate and 30 μM glycine) co-application to detect positive modulatory effects of the test article.
Test Article Administration: The first pre-application will consist of the addition of 20 μL of 2× concentrated test article solution and, second, of 20 μL of 1× concentrated test article and agonist at 10 μL/s (2 second total application time).
In general terms: The patch-clamp technique gives a direct electrical read-out from membranes.

Each structure is given as a SMILES string.

T1 sequence (Q12879 23-1464, other chains not shown): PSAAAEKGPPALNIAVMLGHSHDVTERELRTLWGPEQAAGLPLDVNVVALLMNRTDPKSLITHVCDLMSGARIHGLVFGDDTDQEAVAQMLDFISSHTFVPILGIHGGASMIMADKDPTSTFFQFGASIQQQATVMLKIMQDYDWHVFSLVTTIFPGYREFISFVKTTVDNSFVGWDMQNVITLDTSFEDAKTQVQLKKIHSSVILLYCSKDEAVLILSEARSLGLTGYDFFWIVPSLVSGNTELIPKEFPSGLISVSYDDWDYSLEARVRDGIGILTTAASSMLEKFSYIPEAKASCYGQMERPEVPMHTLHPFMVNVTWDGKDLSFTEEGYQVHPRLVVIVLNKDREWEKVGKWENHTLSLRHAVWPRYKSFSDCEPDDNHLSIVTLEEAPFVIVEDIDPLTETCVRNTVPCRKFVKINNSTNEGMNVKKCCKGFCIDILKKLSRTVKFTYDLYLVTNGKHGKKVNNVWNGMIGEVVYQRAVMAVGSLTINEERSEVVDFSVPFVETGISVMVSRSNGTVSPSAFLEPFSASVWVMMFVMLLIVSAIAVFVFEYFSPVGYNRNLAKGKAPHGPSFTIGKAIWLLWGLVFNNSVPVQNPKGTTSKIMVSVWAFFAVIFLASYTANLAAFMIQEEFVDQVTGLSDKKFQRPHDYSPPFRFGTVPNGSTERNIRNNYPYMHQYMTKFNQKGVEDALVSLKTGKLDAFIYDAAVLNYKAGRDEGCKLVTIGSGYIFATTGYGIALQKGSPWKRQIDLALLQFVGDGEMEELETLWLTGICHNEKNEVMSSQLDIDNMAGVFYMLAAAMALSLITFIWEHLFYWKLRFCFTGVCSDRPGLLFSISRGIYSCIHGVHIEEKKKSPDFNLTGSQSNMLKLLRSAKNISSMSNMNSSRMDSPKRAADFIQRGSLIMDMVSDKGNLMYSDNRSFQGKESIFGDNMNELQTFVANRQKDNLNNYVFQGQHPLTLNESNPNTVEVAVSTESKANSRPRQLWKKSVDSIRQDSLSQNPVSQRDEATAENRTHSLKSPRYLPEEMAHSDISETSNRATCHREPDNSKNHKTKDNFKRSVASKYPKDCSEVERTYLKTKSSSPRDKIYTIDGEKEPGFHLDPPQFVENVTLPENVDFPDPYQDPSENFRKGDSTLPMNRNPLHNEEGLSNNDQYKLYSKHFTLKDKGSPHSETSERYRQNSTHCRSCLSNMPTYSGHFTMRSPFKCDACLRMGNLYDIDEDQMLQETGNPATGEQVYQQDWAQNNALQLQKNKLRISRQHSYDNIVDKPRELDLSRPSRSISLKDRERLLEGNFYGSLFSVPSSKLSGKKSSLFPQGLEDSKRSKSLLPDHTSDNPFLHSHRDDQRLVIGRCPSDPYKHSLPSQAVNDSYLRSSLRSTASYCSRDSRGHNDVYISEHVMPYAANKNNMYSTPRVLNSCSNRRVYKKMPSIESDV

As for `CC[C@]1(O)CC[C@@]2(C)C(=CC[C@H]3[C@@H]4CC[C@H]([C@H](C)CC[C@H](O)C5CC5)[C@@]4(C)CC[C@@H]32)C1` (single isomer, unassigned) [Compound 25], the “GluN2A PCA IWB Ephys % potentiation at 3 μM” value is listed as “C (“C” indicates potentiation of >150%)”.

As to `CC[C@H](O)CC[C@@H](C)[C@H]1CC[C@H]2[C@@H]3CC[C@H]4C[C@@](C)(O)CC[C@]4(C)[C@H]3CC[C@]12C` [Compound 9], the activation at 3 µM is 75 to 150%.

Turning to `CC[C@]1(O)CC[C@@]2(C)C(=CC[C@H]3[C@@H]4CC[C@H]([C@H](C)CC[C@H](O)C(C)C)[C@@]4(C)CC[C@@H]32)C1` [Compound 10], the activation at 3 µM is over 150%.

For the compound `CC[C@]1(O)CC[C@@]2(C)C(=CC[C@H]3[C@@H]4CC[C@H]([C@H](C)CC[C@@H](O)C(C)C)[C@@]4(C)CC[C@@H]32)C1` [Compound 11], the activation at 3 µM was over 150%.

As for `CC[C@]1(O)CC[C@@]2(C)[C@@H](CC[C@@H]3[C@@H]2CC[C@]2(C)[C@@H]([C@H](C)CC[C@H](O)C(C)C)CC[C@@H]32)C1` [Compound 13], the activation at 3 µM is over 150%.

With `CC[C@]1(O)CC[C@@]2(C)[C@@H](CC[C@@H]3[C@@H]2CC[C@]2(C)[C@@H]([C@H](C)CC[C@@H](O)C(C)C)CC[C@@H]32)C1` [Compound 15], the “GluN2A PCA IWB Ephys % potentiation at 3 μM” value is listed as “C (“C” indicates potentiation of >150%)”.

Turning to `CC(C)[C@H](O)CC[C@@H](C)[C@H]1CC[C@H]2[C@@H]3CC=C4C[C@@](C)(O)CC[C@]4(C)[C@H]3CC[C@]12C` [Compound 19], the activation at 3 µM is over 150%.

In the case of `CC[C@H](O)CC[C@@H](C)[C@H]1CC[C@H]2[C@@H]3CC=C4C[C@](O)(CC)CC[C@]4(C)[C@H]3CC[C@]12C` [Compound 23], the activation at 3 µM is over 150%.

As for `CC[C@]1(O)CC[C@@]2(C)C(=CC[C@H]3[C@@H]4CC[C@H]([C@H](C)CC[C@@H](O)C5CC5)[C@@]4(C)CC[C@@H]32)C1` [Compound 26], the “GluN2A PCA IWB Ephys % potentiation at 3 μM” value is listed as “C (“C” indicates potentiation of >150%)”.

Consider `C[C@H](CC[C@H](O)C1CC1)[C@H]1CC[C@H]2[C@@H]3CC=C4C[C@@](C)(O)CC[C@]4(C)[C@H]3CC[C@]12C` [Compound 28], for which the “GluN2A PCA IWB Ephys % potentiation at 3 μM” value is on record as “C (“C” indicates potentiation of >150%)”.

With `C[C@H](CC[C@@H](O)C1CC1)[C@H]1CC[C@H]2[C@@H]3CC=C4C[C@@](C)(O)CC[C@]4(C)[C@H]3CC[C@]12C` [Compound 29], the “GluN2A PCA IWB Ephys % potentiation at 3 μM” value is “B (“B” indicates potentiation of >75% to 150%)”.

Consider `C[C@H](CCC(O)C1CC1)[C@H]1CC[C@H]2[C@@H]3CC[C@H]4C[C@@](C)(O)CC[C@]4(C)[C@H]3CC[C@]12C` (stereo partly shown) [Compound 30], for which the activation at 3 µM is over 150%.

For the compound `C[C@H](CC[C@@H](O)C1CC1)[C@H]1CC[C@H]2[C@@H]3CC[C@H]4C[C@@](C)(O)CC[C@]4(C)[C@H]3CC[C@]12C` [Compound 32], the “GluN2A PCA IWB Ephys % potentiation at 3 μM” value is given as “C (“C” indicates potentiation of >150%)”.

As for `CC[C@]1(O)CC[C@@]2(C)[C@@H](CC[C@@H]3[C@@H]2CC[C@]2(C)[C@@H]([C@H](C)CCC(C)O)CC[C@@H]32)C1` (stereo partly shown) [Compound 33], the activation at 3 µM lay in the range of 10 to 75%.

In the case of `CCC(O)CC[C@@H](C)[C@H]1CC[C@H]2[C@@H]3CC[C@H]4C[C@](O)(CC)CC[C@]4(C)[C@H]3CC[C@]12C` (stereo partly shown) [Compound 34], the activation at 3 µM is over 150%.

For the compound `CC[C@@H](O)CC[C@@H](C)[C@H]1CC[C@H]2[C@@H]3CC[C@H]4C[C@](O)(CC)CC[C@]4(C)[C@H]3CC[C@]12C` [Compound 35], the activation at 3 µM was in the range of 75 to 150%.

On to `CC[C@H](O)CC[C@@H](C)[C@H]1CC[C@H]2[C@@H]3CC[C@H]4C[C@](O)(CC)CC[C@]4(C)[C@H]3CC[C@]12C` [Compound 36], for which the activation at 3 µM is over 150%.

Regarding `CC[C@]1(O)CC[C@@]2(C)[C@@H](CC[C@@H]3[C@@H]2CC[C@]2(C)[C@@H]([C@H](C)CCC(O)C4CC4)CC[C@@H]32)C1` (stereo partly shown) [Compound 38], the activation at 3 µM is over 150%.

For the compound `CC[C@]1(O)CC[C@@]2(C)[C@@H](CC[C@@H]3[C@@H]2CC[C@]2(C)[C@@H]([C@H](C)CC[C@H](O)C4CC4)CC[C@@H]32)C1` [Compound 39], the activation at 3 µM is 10 to 75%.

With `CC[C@]1(O)CC[C@@]2(C)[C@@H](CC[C@@H]3[C@@H]2CC[C@]2(C)[C@@H]([C@H](C)CC[C@@H](O)C4CC4)CC[C@@H]32)C1` [Compound 40], the activation at 3 µM was over 150%.

For the compound `C[C@H](CC[C@H](O)C1CCC1)[C@H]1CC[C@H]2[C@@H]3CC=C4C[C@@](C)(O)CC[C@]4(C)[C@H]3CC[C@]12C` [Compound 41-A], the “GluN2A PCA IWB Ephys % potentiation at 3 μM” value is reported as “C (“C” indicates potentiation of >150%)”.

As for `C[C@H](CC[C@@H](O)C1CCC1)[C@H]1CC[C@H]2[C@@H]3CC=C4C[C@@](C)(O)CC[C@]4(C)[C@H]3CC[C@]12C` [Compound 41-B], the activation at 3 µM was over 150%.

As to `C[C@H](CC[C@H](O)C1CCOCC1)[C@H]1CC[C@H]2[C@@H]3CC=C4C[C@@](C)(O)CC[C@]4(C)[C@H]3CC[C@]12C` [Compound 44-A], the “GluN2A PCA IWB Ephys % potentiation at 3 μM” value is “C (“C” indicates potentiation of >150%)”.

On to `C[C@H](CCC(O)C1CCOCC1)[C@H]1CC[C@H]2[C@@H]3CC=C4C[C@@](C)(O)CC[C@]4(C)[C@H]3CC[C@]12C` (stereo partly shown) [Compound 44], for which the activation at 3 µM is over 150%.

With `C[C@H](CC[C@H](O)CC(F)(F)F)[C@H]1CC[C@H]2[C@@H]3CC=C4C[C@@](C)(O)CC[C@]4(C)[C@H]3CC[C@]12C` [Compound 45], the activation at 3 µM is over 150%.

`C[C@H](CC[C@@H](O)CC(F)(F)F)[C@H]1CC[C@H]2[C@@H]3CC=C4C[C@@](C)(O)CC[C@]4(C)[C@H]3CC[C@]12C` [Compound 46]: the activation at 3 µM is over 150%.

Take `C[C@H](CC[C@H](O)CC(F)(F)F)[C@H]1CC[C@H]2[C@@H]3CC[C@H]4C[C@@](C)(O)CC[C@]4(C)[C@H]3CC[C@]12C` [Compound 47]: the activation at 3 µM was over 150%.

`C[C@H](CC[C@@H](O)CC(F)(F)F)[C@H]1CC[C@H]2[C@@H]3CC[C@H]4C[C@@](C)(O)CC[C@]4(C)[C@H]3CC[C@]12C` [Compound 48]: the activation at 3 µM is over 150%.

Regarding `CC[C@]1(O)CC[C@@]2(C)C(=CC[C@H]3[C@@H]4CC[C@H]([C@H](C)CCC(O)CC(F)(F)F)[C@@]4(C)CC[C@@H]32)C1` (stereo partly shown) [Compound 52], the activation at 3 µM was over 150%.

Take `CC[C@]1(O)CC[C@@]2(C)C(=CC[C@H]3[C@@H]4CC[C@H]([C@H](C)CC[C@H](O)CC(F)(F)F)[C@@]4(C)CC[C@@H]32)C1` [Compound 53]: the “GluN2A PCA IWB Ephys % potentiation at 3 μM” value was “C (“C” indicates potentiation of >150%)”.

On to `CC[C@]1(O)CC[C@@]2(C)C(=CC[C@H]3[C@@H]4CC[C@H]([C@H](C)CC[C@@H](O)CC(F)(F)F)[C@@]4(C)CC[C@@H]32)C1` [Compound 54], for which the activation at 3 µM was over 150%.
